Measured values from ChEMBL document CHEMBL1156829 (Proc Natl Acad Sci U S A, 2008).

Columns and labels:
[1] = tested on: Plasmodium falciparum; test: NOVARTIS: Inhibition of Plasmodium falciparum W2 (drug-resistant) proliferation in erythrocyte-based infection assay; format: functional, organism-based; settings: Plasmodium falciparum, W2; read-out: EC50
[2] = NOVARTIS: Cytotoxicity against human hepatocellular carcinoma cell line (Huh7); format: toxicity, cell-based, Huh-7; settings: Huh7 cells (hepatocellular carcinoma cell line)
[3] = tested on: Plasmodium falciparum; test: NOVARTIS: Inhibition of Plasmodium falciparum 3D7 (drug-susceptible) proliferation in erythrocyte-based infection assay; format: functional, organism-based; settings: Plasmodium falciparum, 3D7

Row | Structure (SMILES) | EC50 [1] [µM] | CC50 [2] [µM] | EC50 [3] [µM]
1 | CN(c1ccc(Br)cc1)S(=O)(=O)c1ccc2[nH]cc(C(=O)N3CCN(c4ccccc4)CC3)c(=O)c2c1 | < 0.00283 | > 10 | > 1.25
2 | CCCCN1Cc2ccc(C(=O)NCCN3CCOCC3)cc2N=C1c1ccc(OC)cc1 | 4.41 | > 100 | > 10
3 | O=C(O)CCCCCNc1ncnc2sc3c(c12)CCCC3 | 0.869 | > 10 | > 1.25
4 | COc1cc(C=C(C#N)c2nc3ccccc3[nH]2)ccc1OCc1ccccc1F | 0.937 | > 100 | 1.38
5 | Oc1ccc(-c2cncc(NCc3ccccc3)n2)cc1 | > 1.25 | > 10 | 1.75
6 | CC1(C)CC(=O)C2=C(C1)Nc1ccccc1N(C(=O)Cc1ccccc1)C2c1ccc([N+](=O)[O-])s1 (configuration not stated) | 0.0898 | > 10 | > 1.25
7 | N#Cc1c(N)nc(SCC(=O)c2ccc(Br)cc2)c(C#N)c1-c1ccccc1 | 0.56 | > 56.6 | 0.581
8 | C=C[C@H]1CN2CC[C@H]1C[C@@H]2[C@@H](OC(=O)CCCCl)c1ccnc2ccccc12 | 0.0968 | > 10 | 0.049
9 | COc1cc(/C=C2/SC(=Nc3ccccc3)NC2=O)ccc1OC(=O)c1ccccc1 | 0.696 | > 10 | > 0.933
10 | CCOC(=O)c1ccc(OCC2c3cc(OC)c(OC)cc3CCN2C(=O)Nc2ccc(Cl)cc2)cc1 (configuration not stated) | 0.292 | > 100 | 1.97
11 | CCN(CC)S(=O)(=O)c1ccc2[nH]cc(C(=O)NCCCN3CCN(c4ccc(OC)cc4)CC3)c(=O)c2c1 | 0.42 | 51.6 | 2.34
12 | Cc1ccc(Cn2c(N3CCC(C(=O)NCc4ccc(F)cc4)CC3)nc3ccccc32)cc1 | 3.18 | > 100 | > 7.51
13 | CN1CCN(NC=C2C(=O)N(c3nc4ccccc4s3)N=C2c2ccccc2)CC1 | 2.3 | > 100 | > 12.5
14 | Cc1cccc(N2C(N)=NC(N)=NC2(C)C)c1 | 0.0528 | 2.98 | 0.0202
15 | CCOc1ccc(-n2c(=S)sc3c(=O)n(-c4ccc(C)cc4)c(SCC(=O)Nc4cc(OC)ccc4OC)nc32)cc1 | 0.123 | > 100 | 0.285
16 | CCOC(=O)c1c(C)[nH]c(C)c1S(=O)(=O)N1CCCC(C(=O)N2CCN(c3cccc(C)c3C)CC2)C1 (configuration not stated) | > 12.5 | > 100 | 5.26
17 | C=C[C@H]1CN2CC[C@H]1C[C@@H]2[C@@H](OC(=O)c1cccs1)c1ccnc2ccccc12 | 0.294 | > 10 | 1.13
18 | Cc1cc(C)c(S(=O)(=O)N(C)CCCNc2ccnc3cc(Cl)ccc23)c(C)c1 | 0.229 | 26.8 | 0.167
19 | CCOC(=O)C1=C(C)NC2=C(C(=O)CC(c3ccccc3)C2)C1c1ccccc1Cl (configuration not stated) | 0.0349 | > 100 | 0.251
20 | O=C1C(Nc2ccc(Cl)cc2)=C(N2CCCCC2)C(=O)c2ccccc21 | 0.25 | 53.2 | 0.319
21 | COc1cc2nc(NCC3CCCO3)n3nc(-c4ccccc4)nc3c2cc1OC (configuration not stated) | 0.662 | > 100 | 0.293
22 | Cc1ccc(NC(=O)C2CSC(c3cccc(F)c3)N2C(=O)c2ccc(C(C)(C)C)cc2)cc1C (configuration not stated) | 0.008 | 0.848 | 0.604
23 | CCOC(=O)C1=C(C)NC2=C(C(=O)CC(c3ccc(OC)c(OC)c3)C2)C1c1ccccc1F (configuration not stated) | 0.0264 | > 100 | 0.0276
24 | CC1=C(CCN(CCCN(C)C)CCCN(C)C)C(C)(C)CCC1 | 0.498 | 7.66 | 0.193
25 | CCN(CC)CCCNC(=S)N(CCN(C)C)Cc1cc2cc(C)cc(C)c2[nH]c1=O | 2 | > 100 | 2.42

Row | Structure (SMILES) | EC50 [1] [µM] | CC50 [2] [µM] | EC50 [3] [µM]
26 | CCN(CC)c1nc(-c2cccnc2)nc2ccccc12 | 1.6 | 72.2 | 5.64
27 | CCCCN(CCCC)S(=O)(=O)c1nc(C)c(Cl)c(C)c1C#N | > 12.5 | > 100 | 3.09
28 | Clc1ccc(OCc2nc3ccccc3n2CCc2ccccc2)cc1 | 0.165 | > 10 | > 0.72
29 | CC(C)c1ccc(OCC(=O)NN=Cc2cccc([N+](=O)[O-])c2)cc1 | > 1.17 | > 10 | > 1.25
30 | CCCCNc1c2c(c(C#N)c3nc4ccccc4n13)CCC2 | 0.367 | > 100 | 0.113
31 | CCC(=O)Nc1ccc2nc(SCC(=O)Nc3ccc(C(C)=O)cc3)sc2c1 | 1.11 | > 100 | > 12.5
32 | Cc1cc(Nc2ccc(Br)cc2)nc2ccccc12 | 1.69 | > 10 | > 1.25
33 | COc1cc(NC(C)CCCN(Cc2ccc(N(C)C)cc2)S(=O)(=O)c2c(C)cc(C)cc2C)c2ncccc2c1 (configuration not stated) | < 0.0134 | > 10.6 | 0.533
34 | O=S(=O)(ON=C1CCCc2sc(Cl)cc21)c1ccccc1 | 0.0409 | > 100 | 0.158
35 | Cc1ccc2cc(C)c(Nc3ccc(Cl)cc3)nc2c1 | 0.57 | 61 | 0.426
36 | CC(C)c1ccc(/C=C/C(=O)NCc2ccco2)cc1 | 0.628 | > 10 | 0.89
37 | COc1ccc(C(=O)Nc2ccc(-c3nc4ccc(NC(=O)c5ccc(OC)cc5)cc4[nH]3)cc2)cc1 | 0.81 | 8.78 | 0.8
38 | COc1cc(NCCCC(C)N)c2ncccc2c1 (configuration not stated) | 0.418 | 14.4 | 0.215
39 | O=C(c1ccc(Cl)cc1Cl)N1CCCC(C(F)(F)F)C1 (configuration not stated) | 1.4 | > 100 | 0.663
40 | COc1ccc(Nc2nc(NCc3ccccc3)c3ccccc3n2)cc1 | 0.106 | 8.67 | 0.212
41 | Cc1ccc(-c2cn3ccccc3[n+]2-c2ccccc2)cc1 | 0.817 | 51.7 | 0.214
42 | Cc1nc2c(C)c(-c3ccccc3)nn2c(O)c1C | 2.08 | > 100 | 1.02
43 | CC(=O)N(C1=C(N2CCN(C)CC2)C(=O)c2ccccc2C1=O)c1cc(C)cc(C)c1 | 0.0612 | 12.7 | 0.067
44 | Cc1ccn2c(NC(C)(C)CC(C)(C)C)c(-c3ccccc3OC(=O)c3cccs3)nc2c1 | 0.0393 | > 10 | 0.667
45 | O=C(Nc1ccc(-c2nc3ccccc3[nH]2)cc1)c1ccccc1Oc1ccccc1 | 2.14 | > 100 | 1.58
46 | Cc1ccc(N2C3c4ccccc4N(S(=O)(=O)c4ccc(C)cc4)C2c2ccccc2N3S(=O)(=O)c2ccc(C)cc2)cc1 | 1.49 | > 10 | 0.72
47 | OC(CNCC1COc2ccccc2O1)c1ccccc1 (configuration not stated) | 1 | > 100 | > 12.2
48 | Cc1c(Cl)cccc1NC(=S)N1CCCN(c2ccc(C(F)(F)F)cc2[N+](=O)[O-])CC1 | 0.202 | 51.4 | 0.254
49 | COC(=O)c1ccc(NC(=O)CSc2nc3cc4c(cc3cc2C#N)OCCO4)cc1 | 1.54 | > 10 | 1.61
